{"source": "patent US20240252454A1", "about": "“COMPOSITION COMPRISING AN INHIBITOR OF MITOCHONDRIAL TRANSCRIPTION” (LEAD DISCOVERY CENTER GMBH, priority 2021, published 2024)", "experiment_in_all_cases": "CellTiter-GLO (CTG) assay, combinatorial matrix", "assay_type_in_all_cases": "cell-based", "key": {"A2780": {"tested_on": "A2780", "details": "for combination of IMT and PARPi compared to treatment with just the PARPi alone: A2780, CTG matrix, 30 μM to 10 nM IMT (3S)-1-[(2R)-2-[4-(2-chloro-4-fluoro-phenyl)-2-oxo-chromen-7-yl]oxypropanoyl]piperidine-3-carboxylic acid + 30 μM to 40 nM of the labelled PARPi; for activity at 0.04 µM / activity at 0.1 µM / activity at 0.4 µM / activity at 1.1 µM / activity at […] / activity at 10 µM / activity at 30 µM: Homo sapiens, read-out: Measured residual activity (cellular ATP content); for activity at 0.04 µM / activity at 0.1 µM / activity at 0.4 µM / activity at 1.1 µM / activity at […] / activity at 10 µM / activity at 30 µM / Measured residual activity (cellular ATP content): A2780, 72 hours, untreated control =100%", "procedure": "(§1) To determine the in vitro cellular viability, cellular ATP concentrations were measured using a luminescence-based homogenous assay format, as described here. […] Optimal cell density for each cell line was determined to guarantee linearity. For viability assays with compounds, cells were then seeded at a density of 200 to 1000 per well in 25 μl in 384-well plates (Greiner Bio-One, Frickenhausen, Germany). After overnight incubation at 37° C./5% CO2, 25 nl or 75 nl compounds were added to each sample well by using BIOMEK FXP Laboratory Automation Workstation (Beckman Coulter, USA). Wells with cells and 0.1% or 0.3% DMSO in culture medium were used as positive controls, wells with cells and 10 μM staurosporine (Selleck Chemicals, Huston, USA) in culture medium were used as negative controls. Upon incubation with compounds for 72 h at 37° C./5% CO2 25 μl Cell Titer Glo reagent (Promega, Madison, USA, European Pat. No. 1131441, U.S. Pat. Nos. 7,083,911, 7,452,663 and 7,732,128) 1:2 diluted with cell culture medium) was added to each well to determine cell viability. 384well-plates were placed for 2 min on an orbital microplate shaker and incubated for further 10 min at room temperature resulting in a stabilization of light signal. Luminescence was measured by Envision Plate Reader (Perkin Elmer, USA).\n(§2) All in vitro cell culture experiments were carried out under near physiological glucose concentrations (5 mM) in at least two independent replicates."}, "HEC59": {"tested_on": "HEC59", "details": "HEC59, 72 hours, BAY-876 0 (IMT alone), IMT at the μM of c0, untreated control =100%", "procedure": "as §1, §2\n(§3) To establish the method described, N,N-dimethyl-2-[4-(o-tolyl)-2-oxo-chromen-7-yl]oxy-propanamide, (3S)-1-[2-[4-(2-chloro-4-fluoro-phenyl)-2-oxo-chromen-7-yl]oxypropanoyl]piperidine-3-carboxylic acid, (3S)-1-[(2R)-2-[4-(2-chloro-4-fluoro-phenyl)-2-oxo-chromen-7-yl]oxypropanoyl]piperidine-3-carboxylic acid and BAY-876 were first examined with regard to their effect on the cell growth of twelve different tumour cell lines and the IC50 values were determined. This initial study was followed by validation experiments in a matrix format and in the CTG assay, as described under Example 1), in two tumour cell lines from uterine and ovarian carcinoma (HEC59 and A2780), as well as in primary human blood cells (PBMC) (Table 7).\n(§4) Combinations of one concentration of IMT (μM; y-axis) and 30 μM-33 nM BAY-876 (x-axis) were incubated for 72 hours with HEC59, hPBMCs or A2780 and then the cellular ATP-content was determined using the CellTiter-GLO assay format. A: Measured residual activity (%) based on an untreated control group (=100%). B: The combinatorial indices are provided, based on the reference groups treated with the corresponding concentration of only one inhibitor class, according to Berenbaum and Cou & Talalay. <1=synergism, 1-2=additivity, 2>=antagonism."}, "[1]": {"tested_on": "primary human blood cells (PBMC)", "details": "hPBMCs, 72 hours, BAY-876 0 (IMT alone), IMT at the μM of c0, untreated control =100%", "procedure": "as §1, §2, §3, §4"}}, "note": "Where two headings read alike, the source gives them in different places."}
{"smiles": "CNCc1ccc(-c2[nH]c3cc(F)cc4c3c2CCNC4=O)cc1", "note": "[Rucaparib]", "values": [{"measurement": "combination of IMT and PARPi compared to treatment with just the PARPi alone", "setting": "A2780", "value": "advantage of the combination"}, {"measurement": "activity at 0.04 µM", "setting": "A2780; Rucaparib 0.04 μM, IMT (3S)-1-[(2R)-2-[4-(2-chloro-4-fluoro-phenyl)-2-oxo-chromen-7-yl]oxypropanoyl]piperidine-3-carboxylic acid at the μM of c0", "value": 90, "unit": "%"}, {"measurement": "activity at 0.1 µM", "setting": "A2780; Rucaparib 0.1 μM, IMT (3S)-1-[(2R)-2-[4-(2-chloro-4-fluoro-phenyl)-2-oxo-chromen-7-yl]oxypropanoyl]piperidine-3-carboxylic acid at the μM of c0", "value": 70, "unit": "%"}, {"measurement": "activity at 0.4 µM", "setting": "A2780; Rucaparib 0.4 μM, IMT (3S)-1-[(2R)-2-[4-(2-chloro-4-fluoro-phenyl)-2-oxo-chromen-7-yl]oxypropanoyl]piperidine-3-carboxylic acid at the μM of c0", "value": 42, "unit": "%"}, {"measurement": "activity at 1.1 µM", "setting": "A2780; Rucaparib 1.1 μM, IMT (3S)-1-[(2R)-2-[4-(2-chloro-4-fluoro-phenyl)-2-oxo-chromen-7-yl]oxypropanoyl]piperidine-3-carboxylic acid at the μM of c0", "value": 21, "unit": "%"}, {"measurement": "activity at […]", "setting": "A2780; Rucaparib 3.3 μM, IMT (3S)-1-[(2R)-2-[4-(2-chloro-4-fluoro-phenyl)-2-oxo-chromen-7-yl]oxypropanoyl]piperidine-3-carboxylic acid at the μM of c0", "value": 6, "unit": "%"}, {"measurement": "activity at 10 µM", "setting": "A2780; Rucaparib 10 μM, IMT (3S)-1-[(2R)-2-[4-(2-chloro-4-fluoro-phenyl)-2-oxo-chromen-7-yl]oxypropanoyl]piperidine-3-carboxylic acid at the μM of c0", "value": 0, "unit": "%"}, {"measurement": "activity at 30 µM", "setting": "A2780; Rucaparib 30 μM, IMT (3S)-1-[(2R)-2-[4-(2-chloro-4-fluoro-phenyl)-2-oxo-chromen-7-yl]oxypropanoyl]piperidine-3-carboxylic acid at the μM of c0", "value": 0, "unit": "%"}]}
{"smiles": "C[C@]1(c2nc3c(C(N)=O)cccc3[nH]2)CCCN1", "note": "[Veliparib]", "values": [{"measurement": "combination of IMT and PARPi compared to treatment with just the PARPi alone", "setting": "A2780", "value": "advantage of the combination"}, {"measurement": "activity at 0.04 µM", "setting": "A2780; Veliparib 0.04 μM, IMT (3S)-1-[(2R)-2-[4-(2-chloro-4-fluoro-phenyl)-2-oxo-chromen-7-yl]oxypropanoyl]piperidine-3-carboxylic acid at the μM of c0", "value": 99, "unit": "%"}, {"measurement": "activity at 0.1 µM", "setting": "A2780; Veliparib 0.1 μM, IMT (3S)-1-[(2R)-2-[4-(2-chloro-4-fluoro-phenyl)-2-oxo-chromen-7-yl]oxypropanoyl]piperidine-3-carboxylic acid at the μM of c0", "value": 99, "unit": "%"}, {"measurement": "activity at 0.4 µM", "setting": "A2780; Veliparib 0.4 μM, IMT (3S)-1-[(2R)-2-[4-(2-chloro-4-fluoro-phenyl)-2-oxo-chromen-7-yl]oxypropanoyl]piperidine-3-carboxylic acid at the μM of c0", "value": 97, "unit": "%"}, {"measurement": "activity at 1.1 µM", "setting": "A2780; Veliparib 1.1 μM, IMT (3S)-1-[(2R)-2-[4-(2-chloro-4-fluoro-phenyl)-2-oxo-chromen-7-yl]oxypropanoyl]piperidine-3-carboxylic acid at the μM of c0", "value": 89, "unit": "%"}, {"measurement": "activity at […]", "setting": "A2780; Veliparib 3.3 μM, IMT (3S)-1-[(2R)-2-[4-(2-chloro-4-fluoro-phenyl)-2-oxo-chromen-7-yl]oxypropanoyl]piperidine-3-carboxylic acid at the μM of c0", "value": 85, "unit": "%"}, {"measurement": "activity at 10 µM", "setting": "A2780; Veliparib 10 μM, IMT (3S)-1-[(2R)-2-[4-(2-chloro-4-fluoro-phenyl)-2-oxo-chromen-7-yl]oxypropanoyl]piperidine-3-carboxylic acid at the μM of c0", "value": 43, "unit": "%"}, {"measurement": "activity at 30 µM", "setting": "A2780; Veliparib 30 μM, IMT (3S)-1-[(2R)-2-[4-(2-chloro-4-fluoro-phenyl)-2-oxo-chromen-7-yl]oxypropanoyl]piperidine-3-carboxylic acid at the μM of c0", "value": 6, "unit": "%"}]}
{"smiles": "C[C@@H](Oc1ccc2c(-c3ccc(F)cc3Cl)cc(=O)oc2c1)C(=O)N1CCC[C@H](C(=O)O)C1", "note": "[IMT]", "values": [{"measurement": "Measured residual activity (cellular ATP content)", "setting": "HEC59; IMT 0.005 µM", "value": 99, "unit": "%"}, {"measurement": "Measured residual activity (cellular ATP content)", "setting": "HEC59; IMT 1.25 µM", "value": 39, "unit": "%"}, {"measurement": "Measured residual activity (cellular ATP content)", "setting": "[1]; IMT 0.059 µM", "value": 98, "unit": "%"}, {"measurement": "Measured residual activity (cellular ATP content)", "setting": "[1]; IMT 0.234 µM", "value": 94, "unit": "%"}, {"measurement": "Measured residual activity (cellular ATP content)", "setting": "A2780; BAY-876 0 (IMT alone), IMT at the μM of c0, IMT 0.12 µM", "value": 35, "unit": "%"}, {"measurement": "Measured residual activity (cellular ATP content)", "setting": "A2780; BAY-876 0 (IMT alone), IMT at the μM of c0, IMT 0.47 µM", "value": 32, "unit": "%"}, {"measurement": "Measured residual activity (cellular ATP content)", "setting": "A2780; BAY-876 0 (IMT alone), IMT at the μM of c0, IMT 1.88 µM", "value": 29, "unit": "%"}, {"measurement": "Measured residual activity (cellular ATP content)", "setting": "A2780; Olaparib 0 (IMT alone), IMT (3S)-1-[(2R)-2-[4-(2-chloro-4-fluoro-phenyl)-2-oxo-chromen-7-yl]oxypropanoyl]piperidine-3-carboxylic acid at the μM of c0", "value": 30, "unit": "%"}, {"measurement": "Measured residual activity (cellular ATP content)", "setting": "A2780; Rucaparib 0 (IMT alone), IMT (3S)-1-[(2R)-2-[4-(2-chloro-4-fluoro-phenyl)-2-oxo-chromen-7-yl]oxypropanoyl]piperidine-3-carboxylic acid at the μM of c0", "value": 25, "unit": "%"}, {"measurement": "Measured residual activity (cellular ATP content)", "setting": "A2780; Veliparib 0 (IMT alone), IMT (3S)-1-[(2R)-2-[4-(2-chloro-4-fluoro-phenyl)-2-oxo-chromen-7-yl]oxypropanoyl]piperidine-3-carboxylic acid at the μM of c0, IMT 0.2 µM", "value": 29, "unit": "%"}, {"measurement": "Measured residual activity (cellular ATP content)", "setting": "A2780; Veliparib 0 (IMT alone), IMT (3S)-1-[(2R)-2-[4-(2-chloro-4-fluoro-phenyl)-2-oxo-chromen-7-yl]oxypropanoyl]piperidine-3-carboxylic acid at the μM of c0, IMT 7.5 µM", "value": 31, "unit": "%"}]}
